Experimental findings from patent US20250163057A1, “DCN-1 MODULATING COMPOUNDS AND METHODS OF USE THEREOF” (Cellarity, Inc., priority 2023, published 2025) are described below.

A value given as a limit tells only on which side of the number the result lay.

Assay [1] deals with Cullin-3 (CUL3) neddylation. As to the kind of experiment: AlphaLISA assay for Cullin-3 (CUL3) neddylation in TF 1 cells. Format: cell-based. As to conditions: 3 hours treatment. The gist of the method:
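Neddylated CUL3 was quantified by AlphaLISA in lysates of TF 1 cells exposed for 3 h to test compound in IMDM without supplements. Percent inhibition set between vehicle and 1 μM DI-1548 positive control; IC50 derived by Hill-equation fitting of dose-response curves.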
For orientation: Alpha assays give light when donor and acceptor beads are brought close together.

Assay [2] relates to fetal hemoglobin gene HBG1. As to the kind of experiment: HBG1 Nanostring Assay in CD34+ HSPC erythroid differentiation culture. As to conditions: for EC50: HBG1 induction, Day10 of erythroid differentiation; for Nanostring Ymax obs (%): relative to a control compound (C1). Format: cell-based, human. An outline of the steps: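 HBG1 counts came from direct nCounter hybridization (67° C, 22 h) of day-10 lysates, normalized to ERCC positive controls and a housekeeping gene, giving EC50 and Ymax versus a reference compound. Compounds in 0.1% DMSO were present from day −2 while cells underwent EPO/SCF/IL-3 erythroid differentiation, with IL-3 dropped at day 7, at 37° C.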

Broadly, the IC50 is the midpoint of a concentration-inhibition curve. Lower therefore signals inhibition by little substance. The EC50 is the concentration giving half of the maximal effect. A low value points to an effect from little substance. In assay [1] (Homo sapiens, TF-1, 3 h), `CCN1C(=O)[C@@H](NC(=O)c2cccc(C(F)(F)F)c2)[C@@H](c2ccc(F)cc2)c2c(C(=O)N3CCNC[C@H]3C#N)nn(C3CCOCC3)c21` [Compound I-363, N-((4S,5S)-3-((S)-2-cyanopiperazine-1-carbonyl)-7-ethyl-4-(4-fluorophenyl)-6-oxo-1-(tetrahydro-2H-pyran-4-yl)-4,5,6,7-tetrahydro-1H-pyrazolo[3,4-b]pyridin-5-yl)-3-(trifluoromethyl)benzamide] yielded an IC50 of at most 100 nM. In addition, the EC50 in assay [2] (Homo sapiens, 240 h) is at most 100 nM. In addition, the “Nanostring Ymax obs (%)” value in assay [2] was “+++ (Nanostring Ymax greater than 100.0)”.

As for `CCN1C(=O)[C@@H](NC(=O)c2cccc(C(F)(F)F)c2)[C@@H](c2ccc(F)cc2)c2c(NC(=O)C3=CCC3)nn(-c3ccccc3)c21` (racemic) [Compound I-152], in assay [1] (Homo sapiens, TF-1, 3 h), the IC50 is 100 to 1000 nM. This compound also yielded an EC50 in assay [2] (Homo sapiens, 240 h) of 100 to 1000 nM. Also, the “Nanostring Ymax obs (%)” value in assay [2] is listed as “+++ (Nanostring Ymax greater than 100.0)”.

In assay [1] (Homo sapiens, TF-1, 3 h), `C=C(CN1CCC1)C(=O)NCc1nn(-c2ccccc2)c2c1[C@@H](c1ccc(F)cc1)[C@H](NC(=O)c1cccc(C(F)(F)F)c1)C(=O)N2CC` [Compound I-139] had an IC50 of at most 100 nM. The “Nanostring Ymax obs (%)” value in assay [2] was “++ (Nanostring Ymax greater than 50.0 and less than or equal to 100.0)”.

With `CCN1C(=O)[C@@H](NC(=O)c2cccc(C(F)(F)F)c2)[C@@H](c2ccc(F)cc2)c2c(CNC(=O)/C=C/C(=O)OC)nn(-c3ccccc3)c21` (racemic) [Compound I-3], in assay [1] (Homo sapiens, TF-1, 3 h), the IC50 was at most 100 nM. Further, the EC50 in assay [2] (Homo sapiens, 240 h) is at most 100 nM. In assay [2], the “Nanostring Ymax obs (%)” value was “+++ (Nanostring Ymax greater than 100.0)”.

In assay [1] (Homo sapiens, TF-1, 3 h), `C=C(CN1CCC1)C(=O)NCc1nn(-c2ccccc2)c2c1[C@H](c1ccc(F)cc1)[C@H](NC(=O)c1cccc(C(F)(F)F)c1)C(=O)N2CC` (racemic) [Compound I-49, rac-N-((4R,5R)-3-((2-(azetidin-1-ylmethyl)acrylamido)methyl)-7-ethyl-4-(4-fluorophenyl)-6-oxo-1-phenyl-4,5,6,7-tetrahydro-1H-pyrazolo[3,4-b]pyridin-5-yl)-3-(trifluoromethyl)benzamide] showed an IC50 of at most 100 nM. Besides, in assay [2], the “Nanostring Ymax obs (%)” value was “++ (Nanostring Ymax greater than 50.0 and less than or equal to 100.0)”.

In assay [1] (Homo sapiens, TF-1, 3 h), `CCN1C(=O)[C@@H](NC(=O)c2cccc(C(F)(F)F)c2)[C@@H](c2ccc(F)cc2)c2c([C@@H](C)NC#N)nn(-c3ccccc3)c21` [Compound I-73, N-((4S,5S)-3-((R)-1-cyanamidoethyl)-7-ethyl-4-(4-fluorophenyl)-6-oxo-1-phenyl-4,5,6,7-tetrahydro-1H-pyrazolo[3,4-b]pyridin-5-yl)-3-(trifluoromethyl)benzamide] had an IC50 of at most 100 nM. The compound further gave a half-maximal effective concentration (EC50) in assay [2] (Homo sapiens, 240 h) of at most 100 nM. In addition, the “Nanostring Ymax obs (%)” value in assay [2] is “++ (Nanostring Ymax greater than 50.0 and less than or equal to 100.0)”.

In turn, `CCN1C(=O)[C@@H](NC(=O)c2cccc(C(F)(F)F)c2)[C@@H](c2ccc(F)cc2)c2c(C(=O)N(C)[C@H](C#N)CCN(C)C)nn(C3CCOCC3)c21` [Compound I-370] registered an IC50 in assay [1] (Homo sapiens, TF-1, 3 h) of at most 100 nM. In assay [2] (Homo sapiens, 240 h), the EC50 is at most 100 nM. In addition, in assay [2], the “Nanostring Ymax obs (%)” value was “+++ (Nanostring Ymax greater than 100.0)”.

In assay [1] (Homo sapiens, TF-1, 3 h), `CCN1C(=O)[C@@H](NC(=O)c2cccc(C(F)(F)F)c2)[C@@H](c2ccc(F)cc2)c2c(C(=O)N3[C@H](C#N)C[C@H]4C[C@H]43)nn(-c3ccccc3)c21` [Compound I-277] registered an IC50 of at most 100 nM. The compound further had an EC50 in assay [2] (Homo sapiens, 240 h) of at most 100 nM. In assay [2], the “Nanostring Ymax obs (%)” value was “+++ (Nanostring Ymax greater than 100.0)”.

In turn, `CCN1C(=O)[C@@H](NC(=O)c2cccc(C(F)(F)F)c2)[C@@H](c2ccc(F)cc2)c2c(C(=O)N3CCC[C@H]3C#N)nn(-c3ccccc3)c21` [Compound I-278] displayed an IC50 in assay [1] (Homo sapiens, TF-1, 3 h) of at most 100 nM. The EC50 in assay [2] (Homo sapiens, 240 h) was at most 100 nM. Further, the “Nanostring Ymax obs (%)” value in assay [2] was “+++ (Nanostring Ymax greater than 100.0)”.

`CCN1C(=O)[C@@H](NC(=O)c2cccc(C(F)(F)F)c2)[C@@H](c2ccc(F)cc2)c2c(C(=O)N3CCNCC3C#N)nn(C3CCOCC3)c21` (stereo partly shown) [Compound I-334] had a concentration for half-maximal inhibition (IC50) in assay [1] (Homo sapiens, TF-1, 3 h) of at most 100 nM. In addition, the EC50 in assay [2] (Homo sapiens, 240 h) was at most 100 nM. The “Nanostring Ymax obs (%)” value in assay [2] was “+++ (Nanostring Ymax greater than 100.0)”.

Compound `CCN1C(=O)[C@@H](NC(=O)c2cccc(C(F)(F)F)c2)[C@@H](C2CC2)c2c(C(=O)N3CS(=O)(=O)C[C@H]3C#N)nn(C3CCOCC3)c21` [Compound I-617] registered a concentration for half-maximal inhibition (IC50) in assay [1] (Homo sapiens, TF-1, 3 h) of at most 100 nM. In addition, in assay [2], the “Nanostring Ymax obs (%)” value is “+ (Nanostring Ymax greater than or equal to 0.0 and less than or equal to 50.0)”.

In assay [1] (Homo sapiens, TF-1, 3 h), `CCN1C(=O)[C@@H](NC(=O)c2cccc(C(F)(F)F)c2)[C@@H](C2CC2)c2c(C(=O)N3CCNC[C@H]3C#N)nn(-c3ccccc3)c21` [Compound I-383] displayed an IC50 of at most 100 nM. The same compound displayed an EC50 in assay [2] (Homo sapiens, 240 h) of at most 100 nM. In assay [2], the “Nanostring Ymax obs (%)” value was “++ (Nanostring Ymax greater than 50.0 and less than or equal to 100.0)”.

On to `CCN1C(=O)[C@@H](NC(=O)c2cccc(C(F)(F)F)c2)[C@@H](C2CC2)c2c(C(=O)N3C[C@H](OC)C[C@H]3C#N)nn(C3CCOCC3)c21` [Compound I-377], for which, in assay [1] (Homo sapiens, TF-1, 3 h), the IC50 is at most 100 nM. Besides, the EC50 in assay [2] (Homo sapiens, 240 h) was at most 100 nM. The “Nanostring Ymax obs (%)” value in assay [2] is reported as “+++ (Nanostring Ymax greater than 100.0)”.

As to `CCN1C(=O)[C@@H](NC(=O)c2cccc(C(F)(F)F)c2)[C@@H](c2ccc(F)cc2)c2c(CN(C)C#N)nn(-c3ccccc3)c21` [Compound I-92], in assay [1] (Homo sapiens, TF-1, 3 h), the IC50 was 100 to 1000 nM. In addition, in assay [2], the EC50 is 100 to 1000 nM; the “Nanostring Ymax obs (%)” value is “++ (Nanostring Ymax greater than 50.0 and less than or equal to 100.0)”.

As for `CCN1C(=O)[C@@H](NC(=O)c2cccc(C(F)(F)F)c2)[C@@H](C)c2c(C(=O)N3[C@H](C#N)C[C@H]4C[C@H]43)nn(C3CCOCC3)c21` [Compound I-387], the 50% inhibitory concentration (IC50) in assay [1] was at most 100 nM. In assay [2], the EC50 was at most 100 nM and the “Nanostring Ymax obs (%)” value is recorded as “+++ (Nanostring Ymax greater than 100.0)”.

As to `CCN1C(=O)[C@@H](NC(=O)c2cccc(C(F)(F)F)c2)[C@@H](c2ccc(F)cc2)c2c(C(=O)N3CS(=O)(=O)C[C@H]3C#N)nn(C3CCOCC3)c21` (mixture of isomers) [Compound I-661, N-((4S,5S)-3-(4-cyano-1,1-dioxidothiazolidine-3-carbonyl)-7-ethyl-4-(4-fluorophenyl)-6-oxo-1-(tetrahydro-2H-pyran-4-yl)-4,5,6,7-tetrahydro-1H-pyrazolo[3,4-b]pyridin-5-yl)-3-(trifluoromethyl)benzamide], the IC50 in assay [1] (Homo sapiens, TF-1, 3 h) is at most 100 nM. This compound registered a half-maximal effective concentration (EC50) in assay [2] (Homo sapiens, 240 h) of at most 100 nM. In addition, the “Nanostring Ymax obs (%)” value in assay [2] is “++ (Nanostring Ymax greater than 50.0 and less than or equal to 100.0)”.

Turning to `CCN1C(=O)[C@@H](NC(=O)c2cccc(C(F)(F)F)c2)[C@@H](C2CC2)c2c(C(=O)N3[C@H](C#N)C[C@H]4C[C@H]43)nn(C3CCOCC3)c21` [Compound I-256, N-((4S,5S)-3-((1R,3S,5R)-3-cyano-2-azabicyclo[3.1.0]hexane-2-carbonyl)-4-cyclopropyl-7-ethyl-6-oxo-1-(tetrahydro-2H-pyran-4-yl)-4,5,6,7-tetrahydro-1H-pyrazolo[3,4-b]pyridin-5-yl)-3-(trifluoromethyl)benzamide], the IC50 in assay [1] (Homo sapiens, TF-1, 3 h) is at most 100 nM. Also, the EC50 in assay [2] (Homo sapiens, 240 h) was at most 100 nM. Moreover, in assay [2], the “Nanostring Ymax obs (%)” value is on record as “+++ (Nanostring Ymax greater than 100.0)”.

Compound `CCN1C(=O)[C@@H](NC(=O)c2cccc(C(F)(F)F)c2)[C@@H](c2ccc(F)cc2)c2c(C(=O)N(C)[C@@H](C#N)CCN(C)C)nn(C3CCOCC3)c21` [Compound I-369] displayed an IC50 in assay [1] (Homo sapiens, TF-1, 3 h) of at most 100 nM. Besides, the EC50 in assay [2] (Homo sapiens, 240 h) was at most 100 nM. For the same compound, the “Nanostring Ymax obs (%)” value in assay [2] is “+++ (Nanostring Ymax greater than 100.0)”.

As to `CCN1C(=O)[C@@H](NC(=O)c2cccc(C(F)(F)F)c2)[C@@H](C2CC2)c2c(C(=O)N(C)[C@H](C)C#N)nn(C3CCOCC3)c21` [Compound I-422], the IC50 in assay [1] (Homo sapiens, TF-1, 3 h) is at most 100 nM. In addition, in assay [2] (Homo sapiens, 240 h), the EC50 lay in the range of 100 to 1000 nM. In addition, the “Nanostring Ymax obs (%)” value in assay [2] is on record as “+++ (Nanostring Ymax greater than 100.0)”.

The compound `CCc1cccc(C(=O)N[C@@H]2C(=O)N(CC)c3c(c(C(=O)N4[C@H](C#N)C[C@H]5C[C@H]54)nn3C3CCOCC3)[C@@H]2C2CC2)c1` [Compound I-552, N-((4S,5S)-3-((1R,3S,5R)-3-cyano-2-azabicyclo[3.1.0]hexane-2-carbonyl)-4-cyclopropyl-7-ethyl-6-oxo-1-(tetrahydro-2H-pyran-4-yl)-4,5,6,7-tetrahydro-1H-pyrazolo[3,4-b]pyridin-5-yl)-3-ethylbenzamide] registered an IC50 in assay [1] (Homo sapiens, TF-1, 3 h) of at most 100 nM. The EC50 in assay [2] (Homo sapiens, 240 h) is at most 100 nM. In addition, the “Nanostring Ymax obs (%)” value in assay [2] is listed as “+++ (Nanostring Ymax greater than 100.0)”.

As to `CCN1C(=O)[C@@H](NC(=O)c2cccc(C(F)(F)F)c2)[C@@H](C2CCC2)c2c(C(=O)N3CCC[C@H]3C#N)nn(C3CCOCC3)c21` [Compound I-692], in assay [1] (Homo sapiens, TF-1, 3 h), the IC50 was at most 100 nM. Further, the EC50 in assay [2] (Homo sapiens, 240 h) was at most 100 nM. Besides, in assay [2], the “Nanostring Ymax obs (%)” value was “+++ (Nanostring Ymax greater than 100.0)”.

In turn, `CCN1C(=O)[C@@H](NC(=O)c2cccc(C(F)(F)F)c2)[C@@H](C2CC2)c2c(C(=O)N3CCS(=O)(=O)C[C@H]3C#N)nn(C3CCOCC3)c21` (mixture of isomers) [Compound I-379] gave an IC50 in assay [1] (Homo sapiens, TF-1, 3 h) of at most 100 nM. In addition, the EC50 in assay [2] (Homo sapiens, 240 h) was at most 100 nM. The “Nanostring Ymax obs (%)” value in assay [2] was “+++ (Nanostring Ymax greater than 100.0)”.

For `CCN1C(=O)[C@@H](NC(=O)c2cccc(C(F)(F)F)c2)[C@@H](c2ccc(F)cc2)c2c(C(=O)N3CCC[C@H]3C#N)nn(-c3ccccc3)c21` (mixture of isomers) [Compound I-34], the “Nanostring Ymax obs (%)” value in assay [2] is “++ (Nanostring Ymax greater than 50.0 and less than or equal to 100.0)”.
